The values below come from patent US20120059053A1, “COMPOUNDS OF 2,3-DIHYDRO-BENZOFURAN” (FERRER INTERNATIONAL, S.A., priority 2007, published 2012).

Data set [1] in a line: Brain/plasma ratio. The following applies: in vivo.
A short description of data set [2]: Metabolic stability by disappearance of compound on incubation in human microsomes. The following applies: 120 min, 1 μM.
A short description of data set [3]: Levels in rat plasma after po administration. Format: in vivo. The settings on record: 15 min after po administration of 1 mg/Kg.

SMILES strings stand for the structures.

In the case of `CCC(=O)NCC[C@@H]1CCc2ccc(OC)cc21` [(1S)-N-[2-(6-methoxy-indan-1-yl)-ethyl]-propionamide], the brain/plasma ratio result in data set [1] is “zero”. In addition, the metabolic stability entry in data set [2] was “less than 30%”. This molecule registered a concentration at 15 min in data set [3] of 10.1 ng/mL.
In turn, `COc1ccc2c(c1)C(CCNC(C)=O)CO2` (stereo not shown) [Example 1, N-[2-(5-methoxy-2,3-dihydro-benzofuran-3-yl)-ethyl]-acetamide] registered a concentration at 15 min in data set [3] of 98 ng/mL.
